In patent US20070128217A1 (priority 2003, published 2007):

Legend:
[1] = tested on: antibodies in sera from SARS patients (sera 1a, 1b, 2, 6, 37, 62, London, SARS-yellow, SARS-green); format: binding, human; design: Binding of serum 6 to linear peptides of protein X1 of SARS-CoV Urbani / Binding of serum 37 to linear peptides of protein X1 of SARS-CoV Urbani / Binding of serum 6 to looped/cyclic peptide (PEPSCAN-ELISA) / Binding of serum 37 to looped/cyclic peptide (PEPSCAN-ELISA) / Binding of serum 37 to looped/cyclic peptides of protein X1 of SARS-CoV Urbani / Binding of serum 6 to linear peptides of protein X2 / Binding of serum 37 to linear peptides of protein X2 / Binding of serum 37 to looped/cyclic peptides of protein X2 of SARS-CoV Urbani / Binding of serum 6 to linear peptides of protein M of SARS-CoV Urbani / Binding of serum 37 to linear peptides of protein M of SARS-CoV Urbani / Binding of serum 6 to looped/cyclic peptides of protein M of SARS-CoV Urbani / Binding of serum 37 to looped/cyclic peptides of protein M of SARS-CoV Urbani / Binding of serum 6 to linear peptides of protein X3 of SARS-CoV Urbani / Binding of serum 37 to linear peptides of protein X3 of SARS-CoV Urbani / Binding of serum 37 to looped/cyclic peptides of protein X3 of SARS-CoV Urbani / Binding of serum 6 to linear peptides of protein X4 of SARS-CoV Urbani / Binding of serum 37 to linear peptides of protein X4 of SARS-CoV Urbani / Binding of serum 37 to looped/cyclic peptides of protein X4 of SARS-CoV Urbani / Binding of serum 6 to linear peptides of protein X5 of SARS-CoV Urbani / Binding of serum 37 to linear peptides of protein X5 of SARS-CoV Urbani / Binding of serum 37 to looped/cyclic peptides of protein X5 of SARS-CoV Urbani / Binding of serum 6 to linear peptides of protein N of SARS-CoV Urbani / Binding of serum 37 to linear peptides of protein N of SARS-CoV Urbani / Binding of serum 6 to linear peptide (PEPSCAN-ELISA) / Binding of serum 1a to looped/cyclic peptides of protein N of SARS-CoV Urbani / Binding of serum 1b to looped/cyclic peptides of protein N of SARS-CoV Urbani / Binding of serum 2 to looped/cyclic peptides of protein N of SARS-CoV Urbani / Binding of serum 6 to looped/cyclic peptides of protein N of SARS-CoV Urbani / Binding of serum 37 to looped/cyclic peptides of protein N of SARS-CoV Urbani / Binding of serum 62 to looped/cyclic peptides of protein N of SARS-CoV Urbani / Binding of serum London to looped/cyclic peptides of protein N of SARS-CoV Urbani / Binding of serum SARS-green to looped/cyclic peptides of protein N of SARS-CoV Urbani: unit not given here
[2] = tested on: control sera (pooled serum of ten healthy LUMC hospital workers; commercial negative donor pooled serum from the Dutch bloodbank); format: binding, human; design: Binding of Control serum LUMC to linear peptides / Binding of Control serum Blood-bank to linear peptides / Binding of Control serum LUMC to looped peptides / Binding of Control Serum Blood-Bank to Looped peptides / Binding of Control serum LUMC to linear peptides of the protein M of SARS-CoV Urbani / Binding of Control serum Blood-bank to linear peptides of the protein M of SARS-CoV Urbani / Binding of Control serum LUMC to looped peptides of the protein M of SARS-CoV Urbani / Binding of Control Serum Blood-Bank to Looped peptides of the protein M of SARS-CoV Urbani: unit not given here
[3] = tested on: rabbit serum obtained by immunizing a rabbit with the SARS-CoV strain Frankfurt 1; format: binding; design: Binding of a rabbit serum to linear peptides / Binding of a rabbit serum to looped peptides / Rabbit serum linear peptides / Rabbit serum looped peptides / Binding of a rabbit serum to linear peptides of protein N of SARS-CoV Urbani (Rabbit serum linear peptides) / Binding of a rabbit serum to looped/cyclic peptides of protein N of SARS-CoV Urbani (Rabbit serum looped peptides): unit not given here

LKVTAFQHQNSKKTT
Binding of serum 1a to linear peptides of protein X2 [1]: 0.5
Binding of serum 1a to looped/cyclic peptides of protein X2 of SARS-CoV Urbani [1]: 0.3
Binding of serum 1b to linear peptides of protein X2 [1]: 0.4
Binding of serum 1b to looped/cyclic peptides of protein X2 of SARS-CoV Urbani [1]: 0.2
Binding of serum 2 to linear peptides of protein X2 [1]: 0.3
Binding of serum 2 to looped/cyclic peptides of protein X2 of SARS-CoV Urbani [1]: 0.1
Binding of serum 6 to linear peptides of protein X2 [1]: 0.3
Binding of serum 6 to looped/cyclic peptides of protein X2 of SARS-CoV Urbani [1]: 0.1
Binding of serum 37 to linear peptides of protein X2 [1]: 0.5
Binding of serum 37 to looped/cyclic peptides of protein X2 of SARS-CoV Urbani [1]: 0.2
Binding of serum 62 to linear peptides of protein X2 [1]: 0.3
Binding of serum 62 to looped/cyclic peptides of protein X2 of SARS-CoV Urbani [1]: 0.4
Binding of serum London to linear peptides of protein X2 [1]: 0.2
Binding of serum London to looped/cyclic peptides of protein X2 of SARS-CoV Urbani [1]: 0.1
Binding of serum SARS-green to linear peptides of protein X2 [1]: 0.2
Binding of serum SARS-green to looped/cyclic peptides of protein X2 of SARS-CoV Urbani [1]: 0.1
Binding of serum SARS-yellow to linear peptides of protein X2 [1]: 0.7
Binding of serum SARS-yellow to looped/cyclic peptides of protein X2 of SARS-CoV Urbani [1]: 0.2
Binding of Control Serum Blood-Bank to Looped peptides [2]: 0.3
Binding of Control serum Blood-bank to linear peptides [2]: 0.4
Binding of Control serum LUMC to linear peptides [2]: 0.8
Binding of Control serum LUMC to looped peptides [2]: 0.4
Binding of a rabbit serum to linear peptides [3]: 0.6
Binding of a rabbit serum to looped peptides [3]: 0.3

EEVQQELYSPLFLIV
Binding of serum 1a to linear peptides of protein X4 of SARS-CoV Urbani [1]: 0.7
Binding of serum 1b to linear peptides of protein X4 of SARS-CoV Urbani [1]: 0.6
Binding of serum 2 to linear peptides of protein X4 of SARS-CoV Urbani [1]: 0.6
Binding of serum 6 to linear peptides of protein X4 of SARS-CoV Urbani [1]: 0.6
Binding of serum 37 to linear peptides of protein X4 of SARS-CoV Urbani [1]: 0.7
Binding of serum 62 to linear peptides of protein X4 of SARS-CoV Urbani [1]: 0.8
Binding of serum London to linear peptides of protein X4 of SARS-CoV Urbani [1]: 0.7
Binding of serum SARS-green to linear peptides of protein X4 of SARS-CoV Urbani [1]: 0.7
Binding of serum SARS-yellow to linear peptides of protein X4 of SARS-CoV Urbani [1]: 0.8
Recognition of the peptide by sera of SARS-CoV infected individuals, and form (linear, looped/cyclic) in which it is recognized [1]: recognized in looped/cyclic form
Binding of Control Serum Blood-Bank to Looped peptides [2]: 1.0
Binding of Control serum Blood-bank to linear peptides [2]: 0.6
Binding of Control serum LUMC to linear peptides [2]: 0.6
Binding of Control serum LUMC to looped peptides [2]: 1.0
Rabbit serum linear peptides [3]: 0.4
Rabbit serum looped peptides [3]: 0.5

GFAAYNRYRIGNYKL
Binding of serum 1a to linear peptides of protein M of SARS-CoV Urbani [1]: 0.6
Binding of serum 1a to looped/cyclic peptides of protein M of SARS-CoV Urbani [1]: 0.7
Binding of serum 1b to linear peptides of protein M of SARS-CoV Urbani [1]: 0.4
Binding of serum 1b to looped/cyclic peptides of protein M of SARS-CoV Urbani [1]: 0.2
Binding of serum 2 to linear peptides of protein M of SARS-CoV Urbani [1]: 0.4
Binding of serum 2 to looped/cyclic peptides of protein M of SARS-CoV Urbani [1]: 0.6
Binding of serum 6 to linear peptides of protein M of SARS-CoV Urbani [1]: 0.8
Binding of serum 6 to looped/cyclic peptides of protein M of SARS-CoV Urbani [1]: 0.7
Binding of serum 37 to linear peptides of protein M of SARS-CoV Urbani [1]: 0.5
Binding of serum 37 to looped/cyclic peptides of protein M of SARS-CoV Urbani [1]: 0.6
Binding of serum 62 to linear peptides of protein M of SARS-CoV Urbani [1]: 0.5
Binding of serum 62 to looped/cyclic peptides of protein M of SARS-CoV Urbani [1]: 0.5
Binding of serum London to linear peptides of protein M of SARS-CoV Urbani [1]: 0.4
Binding of serum London to looped/cyclic peptides of protein M of SARS-CoV Urbani [1]: 0.2
Binding of serum SARS-green to linear peptides of protein M of SARS-CoV Urbani [1]: 0.3
Binding of serum SARS-green to looped/cyclic peptides of protein M of SARS-CoV Urbani [1]: 0.2
Binding of serum SARS-yellow to linear peptides of protein M of SARS-CoV Urbani [1]: 0.1
Binding of serum SARS-yellow to looped/cyclic peptides of protein M of SARS-CoV Urbani [1]: 0.5
Binding of Control Serum Blood-Bank to Looped peptides of the protein M of SARS-CoV Urbani [2]: 0.5
Binding of Control serum Blood-bank to linear peptides of the protein M of SARS-CoV Urbani [2]: 0.7
Binding of Control serum LUMC to linear peptides of the protein M of SARS-CoV Urbani [2]: 0.8
Binding of Control serum LUMC to looped peptides of the protein M of SARS-CoV Urbani [2]: 0.6
Rabbit serum linear peptides [3]: 0.2
Rabbit serum looped peptides [3]: 0.5
